Experimental data: ChEMBL document CHEMBL1932956, “Combination of two chromophores: synthesis and PDT application of porphyrin-pentamethinium conjugate” (Bioorg Med Chem Lett, 2012)
Calls of active or inactive are those of the source. The calls are words filed in the database; no cut-off is given here.

Assays:
[1] = test system: HL-60; assay: Cytotoxicity against human HL60 cells assessed as cell viability; assay type: functional, cell-based
[2] = test system: HL-60; assay: Induction of apoptosis in human HL60 cells assessed as cell death measured after 24 hrs following photo irradiation by trypan blue assay; assay type: functional, cell-based
[3] = test system: HL-60; assay: Induction of apoptosis in human HL60 cells assessed as DNA fragmentation measured after 6 hrs following photo irradiation by trypan blue assay; assay type: functional, cell-based
[4] = test system: UB900518; assay: Antitumor activity against human UB900518 cells xenografted in mouse assessed as tumor regression at 5 mg/kg followed by photo irradiation measured after 72 hrs; assay type: functional, organism-based; parameters: dose 5 mg/kg

| Compound | IC50 [1] | Activity [2] | Activity [3] | Activity [4] |
| --- | --- | --- | --- | --- |
| O=[N+]([O-])c1ccc(-[n+]2ccc(-c3c4nc(c(-c5cc[n+](-c6ccc([N+](=O)[O-])cc6[N+](=O)[O-])cc5)c5ccc([nH]5)c(-c5cc[n+](-c6ccc([N+](=O)[O-])cc6[N+](=O)[O-])cc5)c5nc(c(-c6cc[n+](-c7ccc([N+](=O)[O-])cc7[N+](=O)[O-])cc6)c6ccc3[nH]6)C=C5)C=C4)cc2)c([N+](=O)[O-])c1 | 3.4 µM | Active | Active | – |
| CN(C)/C=C/C(=C\C=[N+](C)C)c1c2nc(c(C(/C=C/N(C)C)=C/C=[N+](C)C)c3ccc([nH]3)c(C(/C=C/N(C)C)=C/C=[N+](C)C)c3nc(c(C(/C=C/N(C)C)=C/C=[N+](C)C)c4ccc1[nH]4)C=C3)C=C2 | 3 µM | Active | Active | Active |
